pIC50: −log10 of the molar value.
Key:
c-Kit(V654A) = target: T1, c-Kit(V654A) (Homo sapiens, UniProt P10721, V654A); experiment: c-Kit(V654A) assay (33P-ATP filter binding kinase assay); assay type: biochemical; conditions: recombinant human c-Kit aa 544-end V654A, ATP 200 μM
T1 construct: recombinant human c-Kit, amino acids 544-end containing the V654A mutation; GST (N)
How it was run: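 Radiometric filter-binding read-out: substrate 33P incorporation counted by scintillation after P30 filtermat washes in 75 mM phosphoric acid and methanol. Enzyme: N-GST recombinant human c-Kit aa 544-end carrying V654A.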

[1] = target: T2, GIST430 cell line expressing constitutive active cKIT receptor tyrosine kinase (Δ560-576 deletion) (Homo sapiens, UniProt P10721, DEL560-576); experiment: Cellular cKIT autophosphorylation (phospho-Y307-cKIT, Luminex bead assay) in GIST430 cells; assay type: cell-based; conditions: cKIT autophosphorylation, GIST430 cells, compounds 45 min; read-out: GIST 430 IC50
T2 construct: endogenous in cells; host or cells: GIST430 cells
T2 sequence (P10721 with tags, fused parts or gaps DEL560-576): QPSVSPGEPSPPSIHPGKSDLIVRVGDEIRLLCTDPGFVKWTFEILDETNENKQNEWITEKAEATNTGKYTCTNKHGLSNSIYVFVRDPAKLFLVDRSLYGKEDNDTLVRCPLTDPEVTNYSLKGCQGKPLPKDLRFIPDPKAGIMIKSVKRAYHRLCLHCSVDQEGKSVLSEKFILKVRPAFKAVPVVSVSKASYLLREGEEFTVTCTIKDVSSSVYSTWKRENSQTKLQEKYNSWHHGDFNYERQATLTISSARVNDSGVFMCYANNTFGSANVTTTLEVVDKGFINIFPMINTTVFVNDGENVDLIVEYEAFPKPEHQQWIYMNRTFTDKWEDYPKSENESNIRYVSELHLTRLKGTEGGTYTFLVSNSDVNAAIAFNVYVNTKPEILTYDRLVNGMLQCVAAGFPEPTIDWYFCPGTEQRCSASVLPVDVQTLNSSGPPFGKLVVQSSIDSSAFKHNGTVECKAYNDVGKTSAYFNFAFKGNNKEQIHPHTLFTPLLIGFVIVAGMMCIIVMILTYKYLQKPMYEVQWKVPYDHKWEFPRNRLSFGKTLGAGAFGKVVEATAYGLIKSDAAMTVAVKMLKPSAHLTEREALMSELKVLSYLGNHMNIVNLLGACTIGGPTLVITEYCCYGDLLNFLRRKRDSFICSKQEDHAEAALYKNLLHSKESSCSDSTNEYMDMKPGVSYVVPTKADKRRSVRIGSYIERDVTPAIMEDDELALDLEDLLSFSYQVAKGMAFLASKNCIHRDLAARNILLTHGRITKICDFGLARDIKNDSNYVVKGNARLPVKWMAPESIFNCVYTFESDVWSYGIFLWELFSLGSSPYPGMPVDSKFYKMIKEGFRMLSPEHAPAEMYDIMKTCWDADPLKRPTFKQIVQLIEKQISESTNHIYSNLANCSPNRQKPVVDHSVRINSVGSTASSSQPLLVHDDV
Method: Assay Principle for Cellular Testing of cKIT Mutant Inhibitors
The GIST430 cell line expressing constitutive active cKIT receptor tyrosine kinase (Δ560-576 deletion) and the Imatinib resistant GIST430/654 cell line expressing mutated constitutively active cKIT receptor tyrosine kinase (Δ560-576 deletion and V654A point mutation) were employed for assessing cellular potency of compounds. Cellular activity of mutant cKIT was determined by the degree of cKIT autophosphorylation at tyrosine 307 using a Luminex-based bead assay. GIST430 cells were plated with 22,000 cells per well of a 96-well plate in 100 μl medium (85% IMDM/15% FCS) and GIST430/654 cells were plated with 25,000 cells per well of a 96-well plate in 100 μl medium (85% IMDM/15% FCS supplemented with 100 nM Imatinib). At the following day compounds were added in a serial dilution for 45 min. Then, cells were lysed with 90 μl lysis buffer (20 mM Hepes pH 7.5, 200 mM NaCl, 1.5 mM MgCl2×6H2O, 0.4 mM EDTA, 1% Triton-X-100, 1% Phosphatase-Inhibitor II, 20 mM β-Glycerolphosphat, 0.1% Protease-Inhibitor Cocktail III, 0.01% Benzonase) and lysates were cleared by centrifugation through a 96-well filter plate (0.65 μm). Samples were incubated with Luminex-beads which were coupled with an anti-total cKIT antibody overnight at 4° C. under gentle agitation. For detection of phospho-Y307-cKIT a phosphospecific antibody and a species-specific PE-labeled secondary antibody were added. The amount of phospho-Y307-cKIT was determined in a Luminex 200 instrument measuring 100 events per well within 60 seconds.
Counts from samples treated with compounds were calculated as percent of control from solvent treated (0.3% DMSO) samples. Dose-response curves were fitted and IC50 values were determined using Genedata Screener software.

[2] = Determination of Efflux-Ratio (ER) in Caco-2 cells; conditions: human, Caco-2, pH 7.4
Method: Determination of Efflux-Ratio (ER) in Caco-2 Cells
The efflux ratio of the test compounds was determined in Caco-2 human epithelial colorectal adenocarcinoma cell line (TC7 clone) using calculation of apparent permeability (Papp). Cell monolayers were differentiated in vitro for 14 days before the experiment. Subsequently, the test compound (in HBSS pH 7.4 at 1 μM final concentration) was applied on the donor side while HBSS buffer (pH 7.4) was added to the receiver wells. […] The plate was then incubated in a 5% CO2 incubator (37° C., 100% humidity). At the end of the 2 hours incubation period, 50 μL sample was removed from both donor and receiver wells and diluted 1:1 with equal volumes of acetonitrile for LC-MS/MS analysis. The LC-MS/MS analysis used a one-point calibration method from a 1 μM standard solution diluted 1:1 with equal volume of acetonitrile (consistent to the test samples).
The data was used to calculate the apparent permeabilities of the compounds in both apical to basolateral (Papp,AB) and basolateral to apical (Papp,BA) directions at 1 μM concentration in duplicate. The Papp values were calculated from the concentrations in the donor and receiver compartments using the following formula:
Efflux ratio was calculated according to the following formula:

[3] = target: T3, GIST430/654 cell line expressing mutated constitutively active cKIT receptor tyrosine kinase (Δ560-576 deletion and V654A point mutation) (Homo sapiens, UniProt P10721, DEL560-576/V654A); experiment: Cellular cKIT autophosphorylation (phospho-Y307-cKIT, Luminex bead assay) in GIST430/654 cells; assay type: cell-based; conditions: compounds 45 min, read-out: GIST 430/654 IC50
T3 construct: endogenous in cells; host or cells: GIST430/654 cells
T3 sequence (P10721 with tags, fused parts or gaps DEL560-576/V654A): as the sequence (P10721 with tags, fused parts or gaps DEL560-576) above, with V612A counted along it
How it was run: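 Phospho-Y307 cKIT in lysates was measured on a Luminex bead assay, with total-cKIT capture overnight at 4 °C and phosphospecific plus PE secondary detection. Cells had 45 min exposure to a compound dilution series the day after plating: GIST430 (Δ560-576) or GIST430/654 (Δ560-576/V654A, grown with 100 nM imatinib). IC50 values are relative to 0.3% DMSO-treated cells.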

T1 sequence (P10721 544-976 V654A): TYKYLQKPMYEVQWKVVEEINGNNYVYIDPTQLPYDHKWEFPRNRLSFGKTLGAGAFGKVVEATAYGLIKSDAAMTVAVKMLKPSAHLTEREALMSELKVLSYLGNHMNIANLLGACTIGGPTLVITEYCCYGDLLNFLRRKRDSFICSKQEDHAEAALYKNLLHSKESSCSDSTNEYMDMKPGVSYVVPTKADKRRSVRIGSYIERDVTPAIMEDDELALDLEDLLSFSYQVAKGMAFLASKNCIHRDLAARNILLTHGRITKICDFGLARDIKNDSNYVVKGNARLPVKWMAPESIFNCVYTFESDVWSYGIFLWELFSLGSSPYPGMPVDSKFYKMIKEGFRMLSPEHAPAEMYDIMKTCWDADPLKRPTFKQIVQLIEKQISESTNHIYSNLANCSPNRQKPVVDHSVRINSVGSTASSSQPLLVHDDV

| SMILES | pIC50 (c-Kit(V654A)) | pIC50 [1] | efflux ratio at 2 h, 1 μM [2] | pIC50 [3] |
| --- | --- | --- | --- | --- |
| COCCOc1ccn2c(-c3cc(NCc4ccc(-c5cnn(C)c5)cc4)ncn3)cnc2c1 [A4, 6-[7-(2-methoxyethoxy)imidazo[1,2-a]pyridin-3-yl]-N-{[4-(1-methyl-1H-pyrazol-4-yl)phenyl]methyl}pyrimidin-4-amine] | 8.14 | 8.32 | < 15 | 7.32 |
| CO[C@@H]1CCN(c2ccc(CNc3cc(-c4cnc5ccccn45)ncn3)cn2)C1 [A146, 6-{imidazo[1,2-a]pyridin-3-yl}-N-({6-[(3R)-3-methoxypyrrolidin-1-yl]pyridin-3-yl}methyl)pyrimidin-4-amine] | 8.15 | 7.32 | < 15 | 6.47 |
| COc1ccn2c(-c3cc(NCc4ccc(-c5cnn(C)c5)cc4)ncn3)cnc2c1 [A1, 6-{7-methoxyimidazo[1,2-a]pyridin-3-yl}-N-{[4-(1-methyl-1H-pyrazol-4-yl)phenyl]methyl}pyrimidin-4-amine] | 8.07 | 8.49 | < 15 | 7.26 |
| Cn1cc(-c2ccc(CNc3cc(-c4cnc5cc(OCCN6CCn7nncc7C6)ccn45)ncn3)cc2)cn1 [A217, (6-{7-[2-(6,7-dihydro-4H-[1,2,3]triazolo[1,5-a]pyrazin-5-yl)-ethoxy]-imidazo[1,2-a]pyridin-3-yl}-pyrimidin-4-yl)-[4-(1-methyl-1H-pyrazol-4-yl)-benzyl]-amine] | 8.11 | 8.36 | 15 to 50 | 7.12 |
| Cn1cc(-c2ccc(CNc3cc(-c4cnc5cc(N6CCCC6)ccn45)ncn3)cc2)cn1 [A177, [4-(1-methyl-1H-pyrazol-4-yl)-benzyl]-[6-(7-pyrrolidin-1-yl-imidazo[1,2-a]pyridin-3-yl)-pyrimidin-4-yl]-amine] | 7.77 | 7.82 | < 15 | 7.47 |
| Cn1ncc(-c2ccc(CNc3cc(-c4cnc5cc(OCC6CCN(C7COC7)CC6)ccn45)ncn3)cc2)n1 [A76, [4-(2-methyl-2H-[1,2,3]triazol-4-yl)-benzyl]-{6-[7-(1-oxetan-3-yl-piperidin-4-ylmethoxy)-imidazo[1,2-a]pyridin-3-yl]-pyrimidin-4-yl}-amine] | 8.11 | 8.68 | < 15 | 7.28 |
| Cn1cc(-c2ccc(CNc3cc(-c4cnc5cc(OCCN6CCOCC6)ccn45)ncn3)cc2)cn1 [A56, [4-(1-methyl-1H-pyrazol-4-yl)-benzyl]-{6-[7-(2-morpholin-4-yl-ethoxy)-imidazo[1,2-a]pyridin-3-yl]-pyrimidin-4-yl}-amine] | 8.14 | 8.41 | < 15 | 7.30 |
| CNC1CN(c2ccn3c(-c4cc(NCc5ccc(-c6cnn(C)c6)cc5)ncn4)cnc3c2)C1 [A268, N-{[4-(1-methyl-1H-pyrazol-4-yl)phenyl]methyl}-6-{7-[3-(methylamino)azetidin-1-yl]imidazo[1,2-a]pyridin-3-yl}pyrimidin-4-amine] | 7.96 | 8.00 | < 15 | 6.85 |
| Cn1ncc(-c2ccc(CNc3cc(-c4cnc5cc(OCCCN6CCN(C7COC7)CC6)ccn45)ncn3)cc2)n1 [A185, [4-(2-methyl-2H-[1,2,3]triazol-4-yl)-benzyl]-(6-{7-[3-(4-oxetan-3-yl-piperazin-1-yl)-propoxy]-imidazo[1,2-a]pyridin-3-yl}-pyrimidin-4-yl)-amine] | 8.17 | 8.89 | < 15 | 7.23 |
| COc1ccn2c(-c3cc(NCc4ccc(-c5cccnc5)cc4)ncn3)cnc2c1 [A6, 6-{7-methoxyimidazo[1,2-a]23yridine-3-yl}-N-{[4-(23yridine-3-yl)phenyl]methyl}pyrimidin-4-amine] | 8.19 | 7.70 |  | 6.46 |
| COCCOc1ccn2c(-c3cc(NCc4ccc(-c5cnn(C)c5)nc4)ncn3)cnc2c1 [A11, 6-[7-(2-methoxyethoxy)imidazo[1,2-a]pyridin-3-yl]-N-{[6-(1-methyl-1H-pyrazol-4-yl)pyridin-3-yl]methyl}pyrimidin-4-amine] | 7.82 | 8.15 |  | 6.77 |
| COc1ccn2c(-c3ncnc(NCc4ccc(-c5cnn(C)c5)cc4)c3F)cnc2c1 [A97, 5-fluoro-6-{7-methoxyimidazo[1,2-a]pyridin-3-yl}-N-{[4-(1-methyl-1H-pyrazol-4-yl)phenyl]methyl}pyrimidin-4-amine] | 8.18 | 8.06 |  | 6.64 |
| COCCOc1ccn2c(-c3cc(NCc4ccc(-c5cccnc5)cc4)ncn3)cnc2c1 [A5, 6-[7-(2-methoxyethoxy)imidazo[1,2-a]23yridine-3-yl]-N-{[4-(23yridine-3-yl)phenyl]methyl}pyrimidin-4-amine] | 8.09 | 8.28 |  | 6.77 |

Now those with a higher pIC50 (c-Kit(V654A)), led by results:

| pIC50 (c-Kit(V654A)) | pIC50 [1] | efflux ratio at 2 h, 1 μM [2] | pIC50 [3] | SMILES |
| --- | --- | --- | --- | --- |
| 8.30 | 8.36 | < 15 | 7.14 | Cn1cc(-c2ccc(CNc3cc(-c4cnc5cc(OCCCN6CCC(C)(F)CC6)ccn45)ncn3)cc2)cn1 [A262, 6-{7-[3-(4-fluoro-4-methylpiperidin-1-yl)propoxy]imidazo[1,2-a]pyridin-3-yl}-N-{[4-(1-methyl-1H-pyrazol-4-yl)phenyl]methyl}pyrimidin-4-amine] |
| 8.31 | 8.14 | < 15 | 6.66 | F[C@H]1CCN(c2ccc(CNc3cc(-c4cnc5ccccn45)ncn3)cn2)C1 [A148, N-({6-[(3S)-3-fluoropyrrolidin-1-yl]pyridin-3-yl}methyl)-6-{imidazo[1,2-a]pyridin-3-yl}pyrimidin-4-amine] |
| 8.33 | 8.21 |  | 6.52 | COCCOc1ccn2c(-c3cc(NCc4ccc(-c5ccn(C)n5)cc4)ncn3)cnc2c1 [A7, 6-[7-(2-methoxyethoxy)imidazo[1,2-a]pyridin-3-yl]-N-{[4-(1-methyl-1H-pyrazol-3-yl)phenyl]methyl}pyrimidin-4-amine] |
| 8.34 | 8.11 | < 15 | 6.80 | COCCOc1ccn2c(-c3cc(NCc4ccc(-c5ccccc5)cc4)ncn3)cnc2c1 [A2, N-({[1,1′-biphenyl]-4-yl}methyl)-6-[7-(2-methoxyethoxy)imidazo[1,2-a]pyridin-3-yl]pyrimidin-4-amine] |
| 8.42 | 8.74 | < 15 | 7.48 | Cn1ncc(-c2ccc(CNc3cc(-c4cnc5cc(OCCCNC6COC6)ccn45)ncn3)cc2)n1 [A259, N-{[4-(2-methyl-2H-1,2,3-triazol-4-yl)phenyl]methyl}-6-(7-{3-[(oxetan-3-yl)amino]propoxy}imidazo[1,2-a]pyridin-3-yl)pyrimidin-4-amine] |
| 8.43 | 7.66 | < 15 | 7.24 | Cn1ncc(-c2ccc(CNc3cc(-c4cnc5cc(OCCO)ccn45)ncn3)cc2)n1 [A173, 2-({3-[6-({[4-(2-methyl-2H-1,2,3-triazol-4-yl)phenyl]methyl}amino)pyrimidin-4-yl]imidazo[1,2-a]pyridin-7-yl}oxy)ethan-1-ol] |
| 8.48 | 8.82 | < 15 | 7.40 | Cn1ncc(-c2ccc(CNc3cc(-c4cnc5cc(OCCN6CC7(COC7)C6)ccn45)ncn3)cc2)n1 [A108, [4-(2-methyl-2H-[1,2,3]triazol-4-yl)-benzyl]-(6-{7-[2-(2-oxa-6-aza-spiro[3.3]hept-6-yl)-ethoxy]-imidazo[1,2-a]pyridin-3-yl}-pyrimidin-4-yl)-amine] |
| 8.66 | 8.62 |  | 6.72 | c1ccn2c(-c3cc(NCc4ccc(-n5cccn5)cc4)ncn3)cnc2c1 [A9, (6-Imidazo[1,2-a]23yridine-3-yl-pyrimidin-4-yl)-(4-pyrazol-1-yl-benzyl)-amine] |

— patent US12655142B2 (Merck Patent GmbH, priority 2019, dated 2026)
